Assay results from paper PMC7594840, “Identification of histone deacetylase inhibitors with (arylidene)aminoxy scaffold active in uveal melanoma cell lines” (Journal of Enzyme Inhibition and Medicinal Chemistry, 2020).
pIC50: −log10 of the molar value.

What was measured:
[1] = test system: HDAC target genes (RAD54L, RAD51, CLU) in Mel270 cells; assay: QRT-PCR of mRNA levels of HDAC target genes, Mel270 cells; type: cell-based, human; settings: 10 µM compound, 48 h, normalised to GAPDH
Procedure: (§1) Finally, we determined if the treatment of UM cells 92.1 and Mel270 with our compounds could modify the mRNA levels of HDAC target genes. […]
(§2) Figure 9. Modulation of RAD54L, RAD51 and CLU mRNA expression by the different compounds in UM cells 92.1 and Mel270. Cells were treated for 48 h with 10 µM compound or the corresponding amount of DMSO. Data, normalised to GAPDH housekeeping gene, are expressed as fold change relative to the DMSO control. Error bars represent SD of triplicates. One representative experiment is shown.
(§3) Treatments with the compounds were performed with slight differences, according to the final use of the samples. For the cell viability assay with MTT, cells were seeded in 96-well flat-bottom plates in culture medium at 5 × 10^3 cells/well, whereas for cell cycle analysis and QRT-PCR cells were seeded in 24-well plates at 5 × 10^4 cells/well. The day after, a culture medium containing the appropriate amount of compounds or their solvent control DMSO was added, and treatments were carried out for the indicated time.
(§4) To assess the modulation of gene expression, cells were harvested at 48 h of treatment and total RNA was isolated using the NucleoSpin RNA kit (Macherey-Nagel) and reverse-transcribed with the SuperScript III Reverse Transcriptase (Invitrogen). […] Expression levels of mRNAs relative to untreated control were calculated by the ΔΔCT method (Table 3).

Mel270 cells [2] = assay: MTT cell viability assay, UM cell line Mel270; type: cell-based, human; settings: 72 h treatment, compared with SAHA and LD10
Procedure: (§5) The anti-proliferative effects of the most promising HDAC inhibitors, VS16, VS13, SN2, and LD10 were evaluated on human UM cell lines (92.1 and Mel270) and SAHA was used as a positive control. First, we assessed by MTT assay the cell viability after a 72 h treatment at different concentrations. […] Similar results were found for ovarian carcinoma cell line A2780 and to a lesser extent for SKOV3 (Supplementary Figure S2).
(§6) Figure 7. MTT. In vitro cytotoxicity at the 72 h time point of the different compounds in human UM cell lines 92.1 and Mel270, as assessed by the MTT cell viability assay. Data are expressed as percent of control with the DMSO solvent, which was used at the same amount present in the highest compound concentration. Error bars represent SD of quadruplicates. One representative experiment is shown.
as §3
(§7) Cell viability after treatment was evaluated by a microculture tetrazolium reduction assay using MTT [3–(4,5-dimethyltiazol-2-yl) 2,5-diphenyltetrazolium bromide; Sigma]. At 72 h of treatment, 20 μl of MTT stock solution (2 mg/ml in PBS) were added to 200 μl cell cultures for an additional 4 h of incubation. MTT-containing culture medium was then removed and precipitated formazan was dissolved in 100 μl of DMSO. Results were read within 15 min in a microplate reader spectrometer at 540 nm (MEDGENIX 400 ATC, Medgenix Diagnostics), and the means of quadruplicates were calculated. Cell survival was expressed as a percentage of control samples.

HDAC8 = target: T1, HDAC8 (Homo sapiens, UniProt Q9BY41); assay: Microfluidic chip-based HDAC inhibition assay (Calliper off-chip mobility shift), HDAC8; type: biochemical; settings: duplicate, 10-point dose curve, 3-fold serial dilution from 30 μM
T1 construct: purchased BPS Bioscience
T1 sequence (Q9BY41 1-377): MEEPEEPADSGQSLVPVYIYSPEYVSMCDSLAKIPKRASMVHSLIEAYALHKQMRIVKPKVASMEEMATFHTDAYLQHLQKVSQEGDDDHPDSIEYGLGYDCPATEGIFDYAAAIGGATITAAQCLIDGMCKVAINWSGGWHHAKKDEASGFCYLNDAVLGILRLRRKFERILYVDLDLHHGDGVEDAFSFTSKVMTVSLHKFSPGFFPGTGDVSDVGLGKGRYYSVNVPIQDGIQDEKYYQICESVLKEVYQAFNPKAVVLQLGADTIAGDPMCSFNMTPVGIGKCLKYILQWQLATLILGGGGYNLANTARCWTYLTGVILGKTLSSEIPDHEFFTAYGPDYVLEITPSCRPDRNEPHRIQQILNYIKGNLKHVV
From the text: (§11) Test compounds were screened against human histone deacetylases (HDACs) 1, 3, 6, and 8 using the Calliper off-chip mobility shift assay technology. All HDACs were purchased from BPS Bioscience and four selective substrates were used according to the targeted isozyme. […] Buffers components, except for CR-3 (LabChip Coating Reagent 3, purchased from PerkinElmer, Product Number 760050) and Panobinostat (LBH589, purchased from ApexBio Technology)[35]^,[36] were purchased from Sigma Aldrich. […] (all purchased from Selleck Chemicals).

HDAC1 = target: T2, HDAC1 (Homo sapiens, UniProt Q13547); assay: Microfluidic chip-based HDAC inhibition assay (Calliper off-chip mobility shift), HDAC1; type: biochemical; settings: duplicate, 10-point dose curve, 3-fold serial dilution from 30 μM
T2 construct: purchased BPS Bioscience
From the text: as §11

92.1 cells [3] = assay: Cell cycle distribution by flow cytometry (PI), 92.1 cells; type: cell-based, human; settings: 10 µM compound, 48 h
Procedure: (§8) We then investigated whether this anti-proliferative effect was due to the blockade in the G0/G1 phase of the cell cycle, as expected for SAHA[31].
(§9) Figure 8. Influence of the different compounds and DMSO solvent control on cell cycle distribution in UM 92.1 and Mel270 cells. The cells were treated with 10 µM compound for 48 h and cell cycle distribution was analysed by flow cytometry after fixation and staining with PI. The percentage of cells in each category is indicated. One representative experiment is shown.
as §3
(§10) To assess the cell cycle status of treated samples, after 48 h of incubation the cells were harvested, washed twice with cold PBS, and fixed in 70% ethyl alcohol at −20 °C overnight. The day after, the samples were washed with cold PBS and incubated for 20 min with propidium iodide (PI) staining solution (50 μg/ml PI, 0.05% Triton X-100, 0.2 mg/ml RNase A in PBS) at room temperature. Flow cytometric analysis of DNA content was performed using a FACScan flow cytometer with the CellQuest software (BD Biosciences). Gating on viable cells was performed using physical parameters and 10^4 gated events were acquired. Cell cycle analysis on the gated PI distribution was performed using Modfit software.

92.1 cells [4] = assay: MTT cell viability assay, UM cell line 92.1; type: cell-based, human; settings: 72 h treatment, compared with SAHA and LD10
Procedure: as §5, §6, §3, §7

[5] = test system: HeLa nuclear extract containing a mixture of HDACs; assay: HDAC Fluorimetric Assay/Drug Discovery Kit (BIOMOL) on HeLa nuclear extract; type: biochemical
Procedure: The hydroxamic acids 1a–c, 2a–f and carboxylic acids 3a–c, 4a––e synthesised in this study were preliminarily tested on a HeLa nuclear extract containing a mixture of HDACs, by using a commercially available HDAC assay kit (BIOMOL). SAHA and Trichostatin A (TSA) were used as positive controls.
HDAC inhibitory activity of newly synthesised compounds was evaluated using an HDAC Fluorimetric Assay/Drug Discovery Kit (AK-500, BIOMOL). […] Reactions were stopped after 30 min by adding Fluor de Lys^TM Developer. After the addition of this developer, the plate was incubated at room temperature for 15 min, the fluorescence intensity of the wells was measured on a fluorometric plate reader with excitation set at 360 nm and emission detection set at 460 nm.

Mel270 cells [6] = assay: Cell cycle distribution by flow cytometry (PI), Mel270 cells; type: cell-based, human; settings: 10 µM compound, 48 h
Procedure: as §8, §9, §3, §10

HDAC3 = target: T3, HDAC3 (Homo sapiens, UniProt O15379); assay: Microfluidic chip-based HDAC inhibition assay (Calliper off-chip mobility shift), HDAC3; type: biochemical; settings: duplicate, 10-point dose curve, 3-fold serial dilution from 30 μM; SAHA 15-point dose curve
T3 construct: purchased BPS Bioscience
From the text: as §11

[7] = test system: HDAC target genes (RAD54L, RAD51, CLU, DHRS2, CDKN1A) in 92.1 cells; assay: QRT-PCR of mRNA levels of HDAC target genes, 92.1 cells; type: cell-based, human; settings: 10 µM compound, 48 h, normalised to GAPDH
Procedure: as §1, §2, §3, §4

T2 sequence (Q13547 whole entry): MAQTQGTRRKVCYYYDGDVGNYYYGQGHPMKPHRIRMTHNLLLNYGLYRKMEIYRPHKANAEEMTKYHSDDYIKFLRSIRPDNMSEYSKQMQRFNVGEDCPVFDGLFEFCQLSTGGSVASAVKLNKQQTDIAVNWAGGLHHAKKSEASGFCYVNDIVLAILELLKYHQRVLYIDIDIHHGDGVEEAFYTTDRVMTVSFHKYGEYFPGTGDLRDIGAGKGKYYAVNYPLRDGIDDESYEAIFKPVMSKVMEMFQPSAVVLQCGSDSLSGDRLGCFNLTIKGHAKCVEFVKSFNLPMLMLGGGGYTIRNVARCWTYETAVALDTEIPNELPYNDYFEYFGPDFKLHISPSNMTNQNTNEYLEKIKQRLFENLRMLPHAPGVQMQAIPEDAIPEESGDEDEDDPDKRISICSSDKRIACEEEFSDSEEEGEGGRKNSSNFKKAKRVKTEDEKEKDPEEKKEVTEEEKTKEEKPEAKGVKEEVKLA
T3 sequence (O15379 whole entry): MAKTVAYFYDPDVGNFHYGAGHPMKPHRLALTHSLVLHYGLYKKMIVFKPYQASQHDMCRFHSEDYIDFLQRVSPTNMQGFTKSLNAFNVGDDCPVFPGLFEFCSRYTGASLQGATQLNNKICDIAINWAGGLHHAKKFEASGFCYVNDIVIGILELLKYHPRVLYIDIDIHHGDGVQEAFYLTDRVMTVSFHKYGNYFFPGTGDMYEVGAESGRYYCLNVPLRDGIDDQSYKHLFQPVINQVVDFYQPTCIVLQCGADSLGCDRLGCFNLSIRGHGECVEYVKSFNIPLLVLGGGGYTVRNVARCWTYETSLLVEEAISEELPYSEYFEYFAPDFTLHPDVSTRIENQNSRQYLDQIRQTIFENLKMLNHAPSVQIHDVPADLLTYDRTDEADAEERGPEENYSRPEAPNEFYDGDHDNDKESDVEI
T3 sequence (Q9Y618 395-489 partner limits assumed): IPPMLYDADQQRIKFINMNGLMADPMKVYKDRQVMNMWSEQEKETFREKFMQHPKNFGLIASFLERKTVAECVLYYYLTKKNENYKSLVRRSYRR

## O=C(CCCCO/N=C/c1cnc2ccccc2c1)NO [Compound 2f, (E)-N-hydroxy-5-(((quinolin-3-ylmethylene)amino)oxy)pentanamide]
[1]
  modulation of mRNA levels of HDAC target genes: induced a pattern of gene modulation, which overlapped that of SAHA
Mel270 cells [2]
  effect on cell viability (MTT): stronger effect
HDAC8
  pIC50: 5.03
HDAC1
  pIC50: 6.86
92.1 cells [3]
  effect on cell cycle distribution: efficiently block the cell cycle at the G0/G1 phase
92.1 cells [4]
  effect on cell viability (MTT): stronger effect
[5]; HeLa extract IC50 compared with SAHA
  folds more potent than SAHA: 3- to 5 fold
[5]; means of at least three experiments, SD <20% of the mean
  pIC50: 7.27
Mel270 cells [6]
  effect on cell cycle distribution: efficiently block the cell cycle at the G0/G1 phase
HDAC3
  pIC50: 7.40
[7]
  modulation of mRNA levels of HDAC target genes: induced a pattern of gene modulation, which overlapped that of SAHA
